# According to US20160297830A1, “NOVEL COMPOUNDS USEFUL FOR THE TREATMENT OF BACTERIAL INFECTIOUS DISEASES” (GALAPAGOS NV, priority 2013, published 2016):
# Like-named read-outs stand apart in the source and are kept apart here.
# What was measured:
# [1] = target: DNA Polymerase IIIα (DnaE) from Staphylococcus aureus (Staphylococcus aureus, UniProt Q6GG04); assay: biochemical
# [2] = test system: H. influenza Hi3 ATCC 31517; assay: organism not typed; type: cell-based; settings: read-out: MIC Hi3
# [3] = test system: H. influenza Hi47 clinical strain, Ampicillin Resistant; assay: organism not typed; type: cell-based; settings: read-out: MIC Hi47
# [4] = test system: E. coli Ec113 efflux pump KO; assay: microbe, parasite or virus in culture; type: cell-based; settings: Escherichia coli, read-out: MIC Ec113 efflux pump KO
# [5] = test system: S. aureus Sa2 clinical strain NCIMB 41953, MRSA; assay: microbe, parasite or virus in culture; type: cell-based; settings: Staphylococcus aureus, read-out: MIC Sa2
# S. aureus Sa1 ATCC 13709 = assay: microbe, parasite or virus in culture; type: cell-based; settings: Staphylococcus aureus
# [6] = test system: S. aureus Sa26 ATCC 25923; assay: Antibacterial activity assay (MIC), S. aureus Sa26; type: cell-based; settings: Staphylococcus aureus
# [7] = test system: H. influenza Hi10 clinical strain; assay: organism not typed; type: cell-based; settings: read-out: MIC Hi10
# [8] = test system: E. coli Ec50 efflux pump KO; assay: microbe, parasite or virus in culture; type: cell-based; settings: Escherichia coli, read-out: MIC Ec50 efflux pump KO
# E. coli Ec1 ATCC 25922 = assay: Antibacterial activity assay (MIC), E. coli Ec1; type: cell-based; settings: Escherichia coli
# DNA III Polymerase E = DNA III Polymerase E (Escherichia coli, UniProt P10443); assay: In vitro activity against DNA III Polymerase E, E. coli; type: biochemical
# Sequence of DNA III Polymerase E (P10443 whole entry): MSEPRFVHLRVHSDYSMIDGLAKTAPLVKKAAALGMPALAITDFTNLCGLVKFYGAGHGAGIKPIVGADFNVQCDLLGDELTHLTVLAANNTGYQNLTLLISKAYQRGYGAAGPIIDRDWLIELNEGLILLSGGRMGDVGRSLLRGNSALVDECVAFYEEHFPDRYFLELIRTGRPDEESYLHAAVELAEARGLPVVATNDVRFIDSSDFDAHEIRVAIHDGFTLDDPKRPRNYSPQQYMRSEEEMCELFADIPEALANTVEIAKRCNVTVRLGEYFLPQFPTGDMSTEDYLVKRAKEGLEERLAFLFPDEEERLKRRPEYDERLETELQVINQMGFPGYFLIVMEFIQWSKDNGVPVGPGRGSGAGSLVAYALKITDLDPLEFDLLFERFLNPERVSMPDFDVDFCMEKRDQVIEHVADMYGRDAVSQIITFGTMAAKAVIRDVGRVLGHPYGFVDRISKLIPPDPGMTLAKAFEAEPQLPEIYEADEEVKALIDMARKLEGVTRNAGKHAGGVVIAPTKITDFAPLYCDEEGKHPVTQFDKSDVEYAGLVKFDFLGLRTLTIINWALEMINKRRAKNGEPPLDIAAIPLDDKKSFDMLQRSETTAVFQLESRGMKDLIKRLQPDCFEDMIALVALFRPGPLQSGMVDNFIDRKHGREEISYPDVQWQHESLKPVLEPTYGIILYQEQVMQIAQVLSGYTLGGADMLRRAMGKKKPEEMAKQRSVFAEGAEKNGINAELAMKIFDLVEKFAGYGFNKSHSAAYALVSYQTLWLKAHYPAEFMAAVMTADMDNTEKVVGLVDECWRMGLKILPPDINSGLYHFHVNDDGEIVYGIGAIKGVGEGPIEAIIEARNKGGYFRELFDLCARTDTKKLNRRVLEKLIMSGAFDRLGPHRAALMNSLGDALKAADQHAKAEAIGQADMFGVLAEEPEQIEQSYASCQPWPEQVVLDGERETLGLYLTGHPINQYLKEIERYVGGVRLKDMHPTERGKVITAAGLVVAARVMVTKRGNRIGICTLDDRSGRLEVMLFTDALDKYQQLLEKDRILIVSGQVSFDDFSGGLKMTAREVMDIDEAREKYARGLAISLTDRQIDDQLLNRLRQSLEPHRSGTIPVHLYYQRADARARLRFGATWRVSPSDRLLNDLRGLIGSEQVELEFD
# Protocol: A radioactive filterplate assay was used to assess inhibitory activity of compounds on DNA Polymerase IIIα. Five μL of a dilution series of compound, starting from 100 μM highest concentration, 1/5 dilution, was added to the wells of a 96 well plate. Recombinant enzyme was diluted to 0.47 μg/mL in a buffer containing 20 mM Tris pH7.5, 8 mM DTT, 10 mM MgOAc, 0.05% CHAPS and 10 μL thereof was added to the compound dilutions. The reaction was started with the addition of 10 μL substrate in the same buffer, containing activated calf thymus DNA (Sigma, D4522), dATP, dGTP, dCTP, dTTP (Invitrogen) and [α-33P]-dTTP (Perkin Elmer, NEG605H001) at a concentration of 62.5 μg/mL, 50 nM and 7.5 μCi/mL respectively. The mixture was incubated at 30° C. for 120 minutes and terminated by addition of phosphoric acid. Samples were transferred to filter plates and incorporated radioactivity was measured by the Topcount. Data were converted to percent inhibition with respect to positive and negative controls. IC50 values were calculated using Graph Prism™ software.
# S. aureus Sa4 NCTC 6571 = assay: Antibacterial activity assay (MIC), S. aureus Sa4; type: cell-based; settings: Staphylococcus aureus
# [9] = test system: H. influenza Hi106 ATCC 51907; assay: organism not typed; type: cell-based; settings: read-out: MIC Hi106
# [10] = ATCC13709, S. aureus Sa1 ATCC 13709, sensitive strain, Mueller-Hinton Broth, 37° C., read-out: MIC Sa1
# [11] = ATCC25923, read-out: MIC Sa26 + 10% SH, S. aureus Sa26 + 10% SH
# [12] = ATCC25923, read-out: MIC Sa26 + 50% SH, S. aureus Sa26 + 50% SH
# [13] = ATCC25923, S. aureus Sa26 ATCC 25923, sensitive strain, Mueller-Hinton Broth, 37° C., read-out: MIC Sa26
# [14] = ATCC25922, E. coli Ec1 ATCC 25922, sensitive strain, read-out: MIC Ec1
# [15] = NCTC6571, S. aureus Sa4 NCTC 6571, sensitive strain, read-out: MIC Sa4
# Sequence of DNA Polymerase IIIα (DnaE) from Staphylococcus aureus (Q6GG04 1-1022): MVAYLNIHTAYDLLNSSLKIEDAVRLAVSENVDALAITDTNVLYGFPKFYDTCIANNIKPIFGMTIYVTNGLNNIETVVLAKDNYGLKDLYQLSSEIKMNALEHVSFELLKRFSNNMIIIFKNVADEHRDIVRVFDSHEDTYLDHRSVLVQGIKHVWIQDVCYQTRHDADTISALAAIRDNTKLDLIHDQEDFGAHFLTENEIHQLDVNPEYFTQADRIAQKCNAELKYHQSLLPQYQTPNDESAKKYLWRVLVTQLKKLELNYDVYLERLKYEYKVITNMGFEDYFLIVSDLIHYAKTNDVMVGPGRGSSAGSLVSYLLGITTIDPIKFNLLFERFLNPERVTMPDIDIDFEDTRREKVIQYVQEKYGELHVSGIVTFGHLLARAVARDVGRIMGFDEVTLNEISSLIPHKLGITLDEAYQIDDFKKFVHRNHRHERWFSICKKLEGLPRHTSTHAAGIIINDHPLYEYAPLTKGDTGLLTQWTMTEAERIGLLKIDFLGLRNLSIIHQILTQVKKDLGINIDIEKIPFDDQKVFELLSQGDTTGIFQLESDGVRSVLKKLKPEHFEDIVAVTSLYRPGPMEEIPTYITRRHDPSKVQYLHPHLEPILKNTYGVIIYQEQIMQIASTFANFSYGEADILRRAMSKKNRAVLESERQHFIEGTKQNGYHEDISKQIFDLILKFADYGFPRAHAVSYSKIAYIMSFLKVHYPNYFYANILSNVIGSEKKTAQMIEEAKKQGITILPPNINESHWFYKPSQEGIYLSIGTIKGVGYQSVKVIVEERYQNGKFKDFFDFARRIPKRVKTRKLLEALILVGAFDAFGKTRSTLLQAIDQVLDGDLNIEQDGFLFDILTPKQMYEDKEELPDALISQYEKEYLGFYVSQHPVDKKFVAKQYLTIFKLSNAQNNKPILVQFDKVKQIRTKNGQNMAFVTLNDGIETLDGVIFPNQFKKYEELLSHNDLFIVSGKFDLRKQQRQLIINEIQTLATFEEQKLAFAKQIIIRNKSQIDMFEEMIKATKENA
structure (smiles),measurement,setting,value
"COC[C@@H](O)[C@H]1OC(=O)[C@H](COC)[C@H]2C=C[C@H]3[C@H]4O[C@]2(/C(C)=C/[C@H]1C)[C@@H]3[C@H](O)[C@@H](C)[C@H]4OC(=O)c1ccoc1 [Compound 7, 8-O-Furane-3′-carbonylbaleomycin]",IC50,[1],1.83 to 1830 nM
same,MIC,[2],> 64 µg/mL
same,MIC,[3],64 µg/mL
same,MIC,[4],0.125 µg/mL
same,MIC,[5],8 µg/mL
same,MIC,S. aureus Sa1 ATCC 13709; [10],8 µg/mL
same,MIC,[6]; [11],16 µg/mL
same,MIC,[6]; [12],16 µg/mL
same,MIC,[6]; [13],16 µg/mL
same,MIC,[7],64 µg/mL
same,MIC,[8],> 64 µg/mL
same,MIC,E. coli Ec1 ATCC 25922; [14],> 64 µg/mL
same,IC50,DNA III Polymerase E,1.83 to 1830 nM
same,MIC,S. aureus Sa4 NCTC 6571; [15],8 µg/mL
same,MIC,[9],64 µg/mL
"COC[C@@H]1[C@@H](O)[C@@H]2[C@H]3C=C[C@@H]4[C@@H](COC)C(=O)O[C@H]([C@H](O)COC)[C@H](C)/C=C(\C)[C@@]24O[C@H]3[C@@H]1OC(=O)c1cc[nH]n1 [Compound 10, 8-O-1H-Pyrazole-3′-carbonylbranimycin]",IC50,[1],1.73 to 1730 nM
same,MIC,[2],> 64 µg/mL
same,MIC,[3],> 64 µg/mL
same,MIC,[4],16 µg/mL
same,MIC,[5],16 µg/mL
same,MIC,S. aureus Sa1 ATCC 13709; [10],16 µg/mL
same,MIC,[6]; [11],16 µg/mL
same,MIC,[6]; [12],8 µg/mL
same,MIC,[6]; [13],16 µg/mL
same,MIC,[7],> 64 µg/mL
same,MIC,[8],> 64 µg/mL
same,MIC,E. coli Ec1 ATCC 25922; [14],> 64 µg/mL
same,IC50,DNA III Polymerase E,> 17300 nM
same,MIC,S. aureus Sa4 NCTC 6571; [15],16 µg/mL
same,MIC,[9],> 64 µg/mL
"COC[C@@H]1[C@@H](O)[C@@H]2[C@H]3C=C[C@@H]4[C@@H](COC)C(=O)OC[C@H](C)/C=C(\C)[C@@]24O[C@H]3[C@@H]1OC(=O)c1ccc[nH]1 [Compound 22, 17,18-Dinor-8-O-1H-pyrrole-2′-carbonybranimycin]",IC50,[1],1.99 to 1990 nM
same,MIC,[2],> 64 µg/mL
same,MIC,[3],> 64 µg/mL
same,MIC,[4],8 µg/mL
same,MIC,[5],4 µg/mL
same,MIC,S. aureus Sa1 ATCC 13709; [10],4 µg/mL
same,MIC,[6]; [11],4 µg/mL
same,MIC,[6]; [12],8 µg/mL
same,MIC,[6]; [13],4 µg/mL
same,MIC,[7],> 64 µg/mL
same,MIC,[8],> 64 µg/mL
same,MIC,E. coli Ec1 ATCC 25922; [14],> 64 µg/mL
same,IC50,DNA III Polymerase E,> 19900 nM
same,MIC,S. aureus Sa4 NCTC 6571; [15],2 µg/mL
same,MIC,[9],> 64 µg/mL
"COC[C@H]1[C@@H](O)[C@@H]2O[C@@]34/C(C)=C/[C@@H](C)[C@@H]([C@H](O)COC)OC(=O)[C@H](COC)[C@H]3CC[C@@H]2[C@H]4[C@@H]1O [Compound 15, 4,5-Dihydro-branimycin]",IC50,"[1]; DNA polymerase III, S. aureus, read-out: IC50 semiquantitative scoring, S. aureus",2060 to 20600 nM
same,MIC,[2],> 64 µg/mL
same,MIC,[3],> 64 µg/mL
same,MIC,[4],16 µg/mL
same,MIC,[5],> 64 µg/mL
same,MIC,"S. aureus Sa1 ATCC 13709; ATCC13709, read-out: MIC Sa1",> 64 µg/mL
same,MIC,"[6]; ATCC25923, read-out: MIC Sa26",> 64 µg/mL
same,MIC,"[6]; ATCC25923, read-out: MIC Sa26 + 10% SH",> 64 µg/mL
same,MIC,"[6]; ATCC25923, read-out: MIC Sa26 + 50% SH",> 64 µg/mL
same,MIC,[7],> 64 µg/mL
same,MIC,[8],> 64 µg/mL
same,MIC,"E. coli Ec1 ATCC 25922; ATCC25922, read-out: MIC Ec1",> 64 µg/mL
same,IC50,DNA III Polymerase E,> 20600 nM
same,MIC,"S. aureus Sa4 NCTC 6571; NCTC6571, read-out: MIC Sa4",> 64 µg/mL
same,MIC,[9],> 64 µg/mL
"COCC(=NO)[C@H]1OC(=O)[C@H](COC)[C@H]2C=C[C@H]3[C@H]4O[C@]2(/C(C)=C/[C@H]1C)[C@@H]3[C@H](O)[C@@H](COC)[C@H]4OC(=O)c1cc(F)c[nH]1 [Compound 40, 18-Deoxy-18-oximino-8-O-4-Fluoro-1H-pyrrole-2′-carbonylbranimycin]",IC50,[1],1.65 to 1650 nM
same,MIC,[2],> 64 µg/mL
same,MIC,[3],> 64 µg/mL
same,MIC,[4],0.25 µg/mL
same,MIC,[5],0.25 µg/mL
same,MIC,S. aureus Sa1 ATCC 13709; [10],0.25 µg/mL
same,MIC,[6]; [11],1 µg/mL
same,MIC,[6]; [12],1 µg/mL
same,MIC,[6]; [13],1 µg/mL
same,MIC,[7],64 µg/mL
same,MIC,[8],16 µg/mL
same,MIC,E. coli Ec1 ATCC 25922; [14],> 64 µg/mL
same,IC50,"DNA III Polymerase E; DNA polymerase III, E. coli, read-out: IC50 semiquantitative scoring, E. coli",1.65 to 1650 nM
same,MIC,S. aureus Sa4 NCTC 6571; [15],0.12 µg/mL
same,MIC,[9],> 64 µg/mL
"COC[C@@H]1[C@@H](O)[C@@H]2[C@H]3C=C[C@@H]4[C@@H](COC)C(=O)O[C@H]([C@H](O)COC)[C@H](C)/C=C(\C)[C@@]24O[C@H]3[C@@H]1OC(=O)c1ccoc1C [Compound 11, 8-O-2-Methylfurane-3′-carbonylbranimycin]",IC50,[1],1690 to 16900 nM
same,MIC,[2],> 64 µg/mL
same,MIC,[3],> 64 µg/mL
same,MIC,[4],8 µg/mL
same,MIC,[5],> 64 µg/mL
same,MIC,S. aureus Sa1 ATCC 13709; [10],> 64 µg/mL
same,MIC,[6]; [11],> 64 µg/mL
same,MIC,[6]; [12],> 64 µg/mL
same,MIC,[6]; [13],> 64 µg/mL
same,MIC,[7],> 64 µg/mL
same,MIC,[8],> 64 µg/mL
same,MIC,E. coli Ec1 ATCC 25922; [14],> 64 µg/mL
same,IC50,DNA III Polymerase E,> 16900 nM
same,MIC,S. aureus Sa4 NCTC 6571; [15],> 64 µg/mL
same,MIC,[9],> 64 µg/mL
